Source: PubChem BioAssay AID1963431 (Molecular Pharmacology Branch, DTP, NCI, 2024)
Values joined by “and” are separate entries in the source; they are usually repeats but may differ in a detail not shown here. Equal values may be shown once.

Tested on: Rh18 complex spheroid viability, percent test/control
Experiment: Anticancer human tumor Rh18 cell line growth inhibition [Asc];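 note: spheroids exposed to compound for 7 days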;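 for viability, T/C: 100% = DMSO vehicle control wells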
Details: for viability, T/C: stronger effect = lower value
Outline: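 Stromal components (HUVEC and hMSC) are co-assembled with the cancer cells into multicellular spheroids. Drugs are then added singly or paired, at concentrations falling by half-log increments from a clinically achievable maximum, capped at 10 microM without known Cmax.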

[1] = curve of first compound, second compound 0.01 µM
[2] = curve of first compound, second compound 0.0316 µM
[3] = curve of first compound, second compound 0.1 µM
[4] = curve of first compound, second compound 0.316 µM
[5] = curve of first compound, second compound 1 µM
[6] = second compound 0.01 µM, first compound 0.0316 µM
[7] = second compound 0.01 µM, first compound 0.1 µM
[8] = second compound 0.0316 µM, first compound 0.0316 µM
[9] = second compound 0.0316 µM, first compound 0.1 µM
[10] = second compound 0.1 µM, first compound 0.0316 µM
[11] = second compound 0.1 µM, first compound 0.1 µM
[12] = second compound 0.316 µM, first compound 0.0316 µM
[13] = second compound 0.316 µM, first compound 0.1 µM
[14] = second compound 1 µM, first compound 0.0316 µM
[15] = second compound 1 µM, first compound 0.1 µM
[16] = compound alone, run of 10/11/2022

SMILES: NC1CCC(NC2CC2c2ccccc2)CC1 (stereo not drawn) + CNC(C)C(=O)NC1CN(S(=O)(=O)c2cccc(S(=O)(=O)N3CCC4CCC(C(=O)NC(c5ccccc5)c5ccccc5)N4C(=O)C(NC(=O)C(C)NC)C3)c2)CCC2CCC(C(=O)NC(c3ccccc3)c3ccccc3)N2C1=O
- IC50 [1]: > 100 nM
- IC50 [2]: > 100 nM
- IC50 [3]: < 0.316 nM
- IC50 [4]: > 100 nM
- IC50 [5]: < 0.316 nM
- viability, T/C (second compound 0.01 µM, first compound 0.000316 µM): 53.7%
- viability, T/C (second compound 0.01 µM, first compound 0.001 µM): 72.9%
- viability, T/C (second compound 0.01 µM, first compound 0.00316 µM): 72.5%
- viability, T/C (second compound 0.01 µM, first compound 0.01 µM): 66.5%
- viability, T/C [6]: 65.1%
- viability, T/C [7]: 61.5%
- viability, T/C (second compound 0.0316 µM, first compound 0.000316 µM): 53%
- viability, T/C (second compound 0.0316 µM, first compound 0.001 µM): 53.9%
- viability, T/C (second compound 0.0316 µM, first compound 0.00316 µM): 53.5%
- viability, T/C (second compound 0.0316 µM, first compound 0.01 µM): 61.5%
- viability, T/C [8]: 53.1%
- viability, T/C [9]: 53%
- viability, T/C (second compound 0.1 µM, first compound 0.000316 µM): 48.1%
- viability, T/C (second compound 0.1 µM, first compound 0.001 µM): 54.7%
- viability, T/C (second compound 0.1 µM, first compound 0.00316 µM): 48.7%
- viability, T/C (second compound 0.1 µM, first compound 0.01 µM): 55.5%
- viability, T/C [10]: 52.3%
- viability, T/C [11]: 56.1%
- viability, T/C (second compound 0.316 µM, first compound 0.000316 µM): 53.6%
- viability, T/C (second compound 0.316 µM, first compound 0.001 µM): 54%
- viability, T/C (second compound 0.316 µM, first compound 0.00316 µM): 52.6%
- viability, T/C (second compound 0.316 µM, first compound 0.01 µM): 53.1%
- viability, T/C [12]: 53.6%
- viability, T/C [13]: 59.4%
- viability, T/C (second compound 1 µM, first compound 0.000316 µM): 43.8%
- viability, T/C (second compound 1 µM, first compound 0.001 µM): 50.9%
- viability, T/C (second compound 1 µM, first compound 0.00316 µM): 42.6%
- viability, T/C (second compound 1 µM, first compound 0.01 µM): 44.8%
- viability, T/C [14]: 50.2%
- viability, T/C [15]: 56%

SMILES: O=C(c1cc(Cc2n[nH]c(=O)c3ccccc23)ccc1F)N1CCN(C(=O)C2CC2)CC1 + CNC(C)C(=O)NC1CN(S(=O)(=O)c2cccc(S(=O)(=O)N3CCC4CCC(C(=O)NC(c5ccccc5)c5ccccc5)N4C(=O)C(NC(=O)C(C)NC)C3)c2)CCC2CCC(C(=O)NC(c3ccccc3)c3ccccc3)N2C1=O
- IC50 [1]: 404 nM
- IC50 [2]: < 31.6 nM
- IC50 [3]: < 31.6 nM
- IC50 [4]: < 31.6 nM
- IC50 [5]: < 31.6 nM
- viability, T/C [6]: 60.7%
- viability, T/C [7]: 48.4%
- viability, T/C (second compound 0.01 µM, first compound 0.316 µM): 49.6%
- viability, T/C (second compound 0.01 µM, first compound 1 µM): 39.4%
- viability, T/C (second compound 0.01 µM, first compound 3.16 µM): 13.2%
- viability, T/C (second compound 0.01 µM, first compound 10 µM): 16.7%
- viability, T/C [8]: 45.8%
- viability, T/C [9]: 49.9%
- viability, T/C (second compound 0.0316 µM, first compound 0.316 µM): 46.4%
- viability, T/C (second compound 0.0316 µM, first compound 1 µM): 34.5%
- viability, T/C (second compound 0.0316 µM, first compound 3.16 µM): 16.7%
- viability, T/C (second compound 0.0316 µM, first compound 10 µM): 18.1%
- viability, T/C [10]: 42%
- viability, T/C [11]: 40.2%
- viability, T/C (second compound 0.1 µM, first compound 0.316 µM): 26.7%
- viability, T/C (second compound 0.1 µM, first compound 1 µM): 27.8%
- viability, T/C (second compound 0.1 µM, first compound 3.16 µM): 11.1%
- viability, T/C (second compound 0.1 µM, first compound 10 µM): 12.8%
- viability, T/C [12]: 40%
- viability, T/C [13]: 38.9%
- viability, T/C (second compound 0.316 µM, first compound 0.316 µM): 36.8%
- viability, T/C (second compound 0.316 µM, first compound 1 µM): 26.6%
- viability, T/C (second compound 0.316 µM, first compound 3.16 µM): 11.3%
- viability, T/C (second compound 0.316 µM, first compound 10 µM): 12.2%
- viability, T/C [14]: 32.2%
- viability, T/C [15]: 36.8%
- viability, T/C (second compound 1 µM, first compound 0.316 µM): 32.5%
- viability, T/C (second compound 1 µM, first compound 1 µM): 26.1%
- viability, T/C (second compound 1 µM, first compound 3.16 µM): 10.8%
- viability, T/C (second compound 1 µM, first compound 10 µM): 10.9%

SMILES: Cc1c(S(C)(=O)=O)c(-c2cc(F)cc(N3CCN(c4ccc(NS(=O)(=O)c5ccc(NC(CCN6CCC(C(=O)OCCCP(=O)(O)O)CC6)CSc6ccccc6)c(S(=O)(=O)C(F)(F)F)c5)cc4)CC3)c2)c(-c2ccc(Cl)cc2)n1C(C)C (stereo not drawn)
- viability, T/C (compound 0.1 µM): 14.1% [middle of 14 runs]
- viability, T/C (compound 0.316 µM): 10% [middle of 14 runs]
- viability, T/C (compound 1 µM): 9.12% [middle of 13 runs]
- viability, T/C (compound 3.16 µM): 6.19% [middle of 14 runs]
- viability, T/C (compound 10 µM): 5.39% [middle of 14 runs]
- IC50 [16]: < 100 nM

SMILES: CCN1C(C(=O)NC23CCC(C(=O)O)(CC2)CC3)C(c2cccc(Cl)c2F)C2(C(=O)Nc3cc(Cl)ccc32)C12CCCCC2 (stereo not drawn) + CNC(C)C(=O)NC1CN(S(=O)(=O)c2cccc(S(=O)(=O)N3CCC4CCC(C(=O)NC(c5ccccc5)c5ccccc5)N4C(=O)C(NC(=O)C(C)NC)C3)c2)CCC2CCC(C(=O)NC(c3ccccc3)c3ccccc3)N2C1=O
- IC50 [1]: < 9.49 nM
- IC50 [2]: < 9.49 nM
- IC50 [3]: < 9.49 nM
- IC50 [4]: < 9.49 nM
- IC50 [5]: < 9.49 nM
- viability, T/C (second compound 0.01 µM, first compound 0.00949 µM): 33%
- viability, T/C (second compound 0.01 µM, first compound 0.03 µM): 26.5%
- viability, T/C (second compound 0.01 µM, first compound 0.0949 µM): 19.7%
- viability, T/C (second compound 0.01 µM, first compound 0.3 µM): 11.7%
- viability, T/C (second compound 0.01 µM, first compound 0.949 µM): 10.8%
- viability, T/C (second compound 0.01 µM, first compound 3 µM): 7.5%
- viability, T/C (second compound 0.0316 µM, first compound 0.00949 µM): 28.5%
- viability, T/C (second compound 0.0316 µM, first compound 0.03 µM): 21.7%
- viability, T/C (second compound 0.0316 µM, first compound 0.0949 µM): 16.3%
- viability, T/C (second compound 0.0316 µM, first compound 0.3 µM): 11.6%
- viability, T/C (second compound 0.0316 µM, first compound 0.949 µM): 10.3%
- viability, T/C (second compound 0.0316 µM, first compound 3 µM): 7.98%
- viability, T/C (second compound 0.1 µM, first compound 0.00949 µM): 20.6%
- viability, T/C (second compound 0.1 µM, first compound 0.03 µM): 18.6%
- viability, T/C (second compound 0.1 µM, first compound 0.0949 µM): 14.6%
- viability, T/C (second compound 0.1 µM, first compound 0.3 µM): 13.5%
- viability, T/C (second compound 0.1 µM, first compound 0.949 µM): 10.5%
- viability, T/C (second compound 0.1 µM, first compound 3 µM): 8.21%
- viability, T/C (second compound 0.316 µM, first compound 0.00949 µM): 21%
- viability, T/C (second compound 0.316 µM, first compound 0.03 µM): 18.1%
- viability, T/C (second compound 0.316 µM, first compound 0.0949 µM): 17.7%
- viability, T/C (second compound 0.316 µM, first compound 0.3 µM): 14.1%
- viability, T/C (second compound 0.316 µM, first compound 0.949 µM): 9.49%
- viability, T/C (second compound 0.316 µM, first compound 3 µM): 10.4%
- viability, T/C (second compound 1 µM, first compound 0.00949 µM): 19.9%
- viability, T/C (second compound 1 µM, first compound 0.03 µM): 17.2%
- viability, T/C (second compound 1 µM, first compound 0.0949 µM): 15.9%
- viability, T/C (second compound 1 µM, first compound 0.3 µM): 13.7%
- viability, T/C (second compound 1 µM, first compound 0.949 µM): 11.8%
- viability, T/C (second compound 1 µM, first compound 3 µM): 9.28%

SMILES: C=C(F)C(=O)N1CCN(c2nc(OCC3CCCN3C)nc3c2CCN(c2cccc4cccc(Cl)c24)C3)CC1CC#N (stereo not drawn)
- viability, T/C (compound 0.0316 µM): 94.1% and 96.8% and 96.1%
- viability, T/C (compound 0.1 µM): 98.8% and 93.5% and 87.2%
- viability, T/C (compound 0.316 µM): 90.9% and 56.4% and 91.5%
- viability, T/C (compound 1 µM): 97.4% and 101% and 93.5%
- viability, T/C (compound 3.16 µM): 35.8% and 36.4% and 35.5%
- viability, T/C (compound 10 µM): 0.31% and 0.29% and 0.27%
- IC50 (curve of compound): 2410 nM and 2320 nM and 2350 nM

SMILES: NC1CCC(NC2CC2c2ccccc2)CC1 (stereo not drawn)
- viability, T/C (compound 0.000316 µM): 135% and 130% and 96.5%
- viability, T/C (compound 0.001 µM): 134% and 133% and 98%
- viability, T/C (compound 0.00316 µM): 124% and 114% and 102%
- viability, T/C (compound 0.01 µM): 120% and 114% and 103%
- viability, T/C (compound 0.0316 µM): 120% and 98.2% and 110%
- viability, T/C (compound 0.1 µM): 114% and 119% and 102%
- IC50 (curve of compound): > 100 nM

SMILES: CCN1C(C(=O)NC23CCC(C(=O)O)(CC2)CC3)C(c2cccc(Cl)c2F)C2(C(=O)Nc3cc(Cl)ccc32)C12CCCCC2 (stereo not drawn)
- viability, T/C (compound 0.00949 µM): 53.3% and 52.8%
- viability, T/C (compound 0.03 µM): 38.3% [middle of 15 runs]
- viability, T/C (compound 0.0949 µM): 21.1% [middle of 15 runs]
- viability, T/C (compound 0.3 µM): 13% [middle of 15 runs]
- viability, T/C (compound 0.949 µM): 9.56% [middle of 15 runs]
- viability, T/C (compound 3 µM): 9.14% [middle of 15 runs]
- IC50 [16]: < 30 nM
- IC50 (curve of compound): 17.8 nM and 11.6 nM
